How the values were obtained:
[1] = molecular target: T1, CDK2/CyclinA2 (Homo sapiens, UniProt P24941); assay: CDK2/CyclinA2 kinase activity test (ADP-Glo); type: biochemical; conditions: 50 μM ATP, 25° C., 60 minutes; read-out: Enzyme activity data (IC50) CDK2/cyclinA
T1 construct: purchased Promega
Method: Experimental materials: CDK2/CyclinA2 kinase detection kit was purchased from Promega. Nivo Multilabel Analyzer (PerkinElmer).
Experimental method: Kinase buffer dilution enzyme in the kit, substrate, adenosine triphosphate and inhibitor were used. The compounds to be tested were diluted 5-fold to the 8th concentration with a row gun, that is, from 50 μM to 0.65 nM, the concentration of DMSO was 5%, and a double-replicate well experiment was set up. 1 μL of each concentration gradient of inhibitor, 2 μL of CDK2/CyclinA2 enzyme (1.6 ng), and 2 μL of a mixture of substrate and ATP (50 μM of adenosine triphosphate, 0.1 μg/μL of substrate) were added to the microplate, and at this time, the final concentration gradient of compound was diluted from 10 μM to 0.13 nM. The reaction system was placed at 25° C. and reacted for 60 minutes. After the reaction was complete, 5 μL of ADP-Glo reagent was added to each well, and the reaction was continued at 25° C. for 40 minutes. At the end of the reaction, 10 μL of kinase detection reagent was added to each well. After the reaction was continued at 25° C. for 30 minutes, the chemiluminescence was read by a multi-label analyzer with an integration time of 0.5 seconds.
Using the equation (Sample−Min)/(Max−Min)×100% to convert the original data into inhibition rate, the IC50 value can be obtained by curve fitting with four parameters (obtained by the mode of log(inhibitor) vs. response—Variable slope in GraphPad Prism). Table 1 provides the enzymatic inhibitory activities of the compounds of the present invention on CDK2/CyclinA2, CDK2/CyclinE1, CDK4/CyclinD1, CDK6/CyclinD1, CDK9/CyclinT1.

[2] = molecular target: T2, CDK6/CyclinD1 (Homo sapiens, UniProt Q00534); assay: CDK6/CyclinD1 kinase activity test (LANCE Ultra TR-FRET); type: biochemical; conditions: 250 μM ATP, 25° C., 120 minutes; read-out: Enzyme activity data (IC50) CDK6/cyclinD1
T2 construct: purchased Carna
Method: Experimental materials: CDK6/CyclinD1 kinase was purchased from Carna, reaction substrate LANCE Ultra ULight™-4E-BP-1 (Thr37146) Peptide and EU-ANTI-P-4EBP1 (THR37/46) were purchased from PerkinElmer. Nivo Multilabel Analyzer (PerkinElmer).
Experimental method: preparation of kinase buffer: The components of the buffer include: 50 mM of hydroxyethylpiperazine […] solution with pH 7.5, 1 mM of EDTA, 10 mM of magnesium chloride, 0.01% lauryl polyoxyethylene ether (Brij-35), 2 mM of enzyme dithiothreitol, kinase buffer dilution enzyme, substrate LANCE Ultra ULight™-4E-BP-1 (Thr37146) Peptide, adenosine triphosphate and inhibitor. […] The reaction system was continued at 25° C. for 120 minutes. After the reaction was complete, a mixture of 5 μL of EDTA and 2× LANCE™ Detection Buffer (1:1) was added to each well, and reacted at 25° C. for 5 minutes, after the reaction was complete, 5 μL of LANCE Ultra Eu-anti-P-4E-BP1(Thr37MS) (4 nM) was added to each well, and reacted at 25° C. for 60 minutes, the reaction signal was detected by Nivo instrument according to the principle of time-resolved fluorescence resonance energy transfer.
(§1) Table 1 provides the enzymatic inhibitory activities of the compounds of the present invention on CDK2/CyclinA2, CDK2/CyclinE1, CDK4/CyclinD1, CDK6/CyclinD1, CDK9/CyclinT1.

[3] = Pharmacokinetic evaluation in female Balb/c mice; type: in vivo; conditions: mouse, plasma
Method: Healthy adult female Balb/c mice used in this study were purchased from Shanghai Lingchang Biotechnology Co., Ltd.
1.11 mg of the compound to be tested was accurately weighed, 109.8 μL of DMSO was added and vortexed for 1 minute, 109.8 μL of solutol was added and vortexed for 1 minute to obtain a clear solution, then 878 μL of water was added and vortexed for 1 minute to obtain the final solution with a final concentration of 1 mg/mL, the dosing vehicle was 10% DMSO+10% solutol+80% water. The solution in the intravenous injection group was filtered with a 2 μm filter before administration.
1.61 mg of the compound to be tested was accurately weighed, 796 μL of 1% HPMC was added, sonicated at 45° C. for 20 minutes, and stirred for 15 minutes to obtain a homogeneous suspension solution with a final concentration of 2 mg/mL. The dosing vehicle was 1% HPMC.
4 female Balb/c mice were divided into 2 groups according to 2 mice in each group. The first group was given 2 mg/kg of the compound to be tested by intravenous injection; the second group was given 10 mg/kg of the compound to be tested by gavage.
The blood was collected from two animals at each time point by continuous blood collection. 30 μL of whole blood was collected before administration and at 0.0833, 0.25, 0.5, 1, 2 (only gavage group), 4, 6, 8 (only intravenous group), and 24 hours after administration, respectively. The whole blood was placed in an anticoagulant tube, centrifuged at 3200 g for 10 minutes at 4° C., the plasma was prepared and stored at −80° C. Drug concentration in the plasma was determined by LC/MS-MS.

[4] = molecular target: T3, CDK9/CyclinT1 (Homo sapiens, UniProt P50750); assay: CDK9/CyclinT1 kinase activity assay (ADP-Glo); type: biochemical; conditions: 100 μM ATP, 25° C., 60 minutes; read-out: Enzyme activity data (IC50) CDK9/CyclinT1
T3 construct: purchased Carna
Method: Experimental materials: CDK9/CyclinT1 kinase was purchased from Carna, the ADP-Glo detection kit was purchased from Promega, the PKDTide substrate and kinase reaction buffer were purchased from Signalchem. Nivo Multilabel Analyzer (PerkinElmer).
Experimental method: Kinase buffer dilution enzyme in the kit, substrate, adenosine triphosphate and inhibitor were used. […] The reaction system was placed at 25° C. and reacted for 60 minutes. After the reaction was complete, 5 μL of ADP-Glo reagent was added to each well, and the reaction was continued at 25° C. for 40 minutes. At the end of the reaction, 10 μL of kinase detection reagent was added to each well. After the reaction was continued at 25° C. for 30 minutes, the chemiluminescence was read by a multi-label analyzer with an integration time of 0.5 seconds.
as §1

T3 sequence (P50750 whole entry): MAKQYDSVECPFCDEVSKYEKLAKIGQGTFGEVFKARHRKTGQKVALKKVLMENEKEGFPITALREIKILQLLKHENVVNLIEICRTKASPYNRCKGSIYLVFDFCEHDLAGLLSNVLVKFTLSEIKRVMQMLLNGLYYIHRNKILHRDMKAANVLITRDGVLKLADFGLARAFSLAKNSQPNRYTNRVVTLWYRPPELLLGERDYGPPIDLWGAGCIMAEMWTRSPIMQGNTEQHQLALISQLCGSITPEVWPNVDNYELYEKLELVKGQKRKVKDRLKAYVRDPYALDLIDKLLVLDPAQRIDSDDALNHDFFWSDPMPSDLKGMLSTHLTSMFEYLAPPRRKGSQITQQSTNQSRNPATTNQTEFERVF
T3 sequence (O60563 whole entry partner): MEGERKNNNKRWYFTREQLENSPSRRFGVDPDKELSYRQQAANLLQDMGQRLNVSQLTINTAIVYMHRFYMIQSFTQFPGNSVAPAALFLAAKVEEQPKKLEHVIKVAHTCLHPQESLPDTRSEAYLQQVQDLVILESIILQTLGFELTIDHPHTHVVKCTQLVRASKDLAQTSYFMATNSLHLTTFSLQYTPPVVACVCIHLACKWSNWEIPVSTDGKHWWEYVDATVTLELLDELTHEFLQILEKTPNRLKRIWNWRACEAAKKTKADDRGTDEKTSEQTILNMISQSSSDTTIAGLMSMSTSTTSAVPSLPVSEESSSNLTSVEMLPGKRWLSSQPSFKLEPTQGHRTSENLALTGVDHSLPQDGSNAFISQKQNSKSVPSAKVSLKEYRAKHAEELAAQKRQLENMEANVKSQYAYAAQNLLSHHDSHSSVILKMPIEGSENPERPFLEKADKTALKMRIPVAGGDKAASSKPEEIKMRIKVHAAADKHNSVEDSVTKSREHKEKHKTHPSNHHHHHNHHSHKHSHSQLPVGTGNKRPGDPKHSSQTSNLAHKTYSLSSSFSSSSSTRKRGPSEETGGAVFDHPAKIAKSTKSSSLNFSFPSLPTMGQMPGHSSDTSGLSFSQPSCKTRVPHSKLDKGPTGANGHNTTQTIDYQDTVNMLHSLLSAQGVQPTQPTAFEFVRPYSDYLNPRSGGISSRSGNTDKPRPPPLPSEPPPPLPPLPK
T2 sequence (Q00534 whole entry): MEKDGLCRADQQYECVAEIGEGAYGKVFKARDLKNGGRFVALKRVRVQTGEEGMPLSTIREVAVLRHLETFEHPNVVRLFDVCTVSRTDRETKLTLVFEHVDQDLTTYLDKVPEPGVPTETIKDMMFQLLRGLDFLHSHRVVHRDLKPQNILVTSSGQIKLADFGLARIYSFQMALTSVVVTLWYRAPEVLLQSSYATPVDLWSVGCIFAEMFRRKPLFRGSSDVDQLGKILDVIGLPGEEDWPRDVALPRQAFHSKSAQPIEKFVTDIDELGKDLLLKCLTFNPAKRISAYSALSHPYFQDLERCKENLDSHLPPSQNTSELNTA
T2 sequence (P24385 whole entry partner): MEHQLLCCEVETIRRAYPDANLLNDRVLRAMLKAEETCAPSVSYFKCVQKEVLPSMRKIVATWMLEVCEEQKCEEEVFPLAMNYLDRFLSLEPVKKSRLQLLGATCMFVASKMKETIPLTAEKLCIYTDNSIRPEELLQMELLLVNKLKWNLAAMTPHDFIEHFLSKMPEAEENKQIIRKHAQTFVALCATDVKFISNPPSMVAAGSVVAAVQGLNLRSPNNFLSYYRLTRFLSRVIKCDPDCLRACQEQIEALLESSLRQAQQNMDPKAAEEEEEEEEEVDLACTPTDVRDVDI

- IC50 [1]: 0.28 nM
- IC50 [2]: 1.5 nM
- clearance ([3]; Intravenous Injection: 2 mg/kg, read-out: Clearance Rate Cl): 36.9 mL/min/kg
- half-life ([3]; Intravenous Injection: 2 mg/kg, read-out: Half-Life T1/2 (converted)): 16.8 min
- bioavailability ([3]; Oral Administration: 10 mg/kg, read-out: Oral Bioavailability F): 31.4%
- AUC(0-t) ([3]; Oral Administration: 10 mg/kg, read-out: Oral Exposure AUC0-t): 3.37 µM·h
- IC50 [4]: 110 nM
SMILES: C[C@@]1(O)CCC[C@H]1N1C(=O)CCc2cnc(NC3CCN(S(C)(=O)=O)CC3)nc21 [Compound 1A]

Reference: patent US12679837B2, “Aminopyrimidine compound as CDK2/4/6 triple inhibitor” (CISEN PHARMACEUTICAL CO., LTD, priority 2019, dated 2026)
